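Results reflect a 48-hour exposure of cells in 96-well plates to compound at five concentrations. TGI: concentration producing complete growth inhibition.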
Experiments:
Test in all cases: inhibition of tumour cell growth, NCI panel, 48 h
MDA-MB-231 breast = test system: MDA-MB-231 breast
786-0 renal = test system: 786-0 renal
SK-MEL-5 melanoma = test system: SK-MEL-5 melanoma
CCRF-CEM leukemia = test system: CCRF-CEM leukemia
UO-31 renal = test system: UO-31 renal
NCI/ADR-RES ovarian = test system: NCI/ADR-RES ovarian
PC-3 prostate = test system: PC-3 prostate
RPMI-8226 leukemia = test system: RPMI-8226 leukemia
KM12 colon = test system: KM12 colon
OVCAR-3 ovarian = test system: OVCAR-3 ovarian
OVCAR-4 ovarian = test system: OVCAR-4 ovarian
NCI-H226 lung = test system: NCI-H226 lung
NCI-H522 lung = test system: NCI-H522 lung
SK-MEL-2 melanoma = test system: SK-MEL-2 melanoma
COLO 205 colon = test system: COLO 205 colon
A498 renal = test system: A498 renal
ACHN renal = test system: ACHN renal
BT-549 breast = test system: BT-549 breast
T-47D breast = test system: T-47D breast
MCF7 breast = test system: MCF7 breast
MDA-MB-435 = test system: MDA-MB-435
OVCAR-8 ovarian = test system: OVCAR-8 ovarian
SN12C renal = test system: SN12C renal
SK-MEL-28 melanoma = test system: SK-MEL-28 melanoma
RXF 393 renal = test system: RXF 393 renal
EKVX NSCLC = test system: EKVX NSCLC
SF-268 CNS = test system: SF-268 CNS
MOLT-4 leukemia = test system: MOLT-4 leukemia
SW-620 colon = test system: SW-620 colon
HCT-116 colon = test system: HCT-116 colon
MALME-3M melanoma = test system: MALME-3M melanoma
A549 NSCLC = test system: A549 NSCLC
IGROV1 ovarian = test system: IGROV1 ovarian
M14 melanoma = test system: M14 melanoma
HOP-62 NSCLC = test system: HOP-62 NSCLC
SF-539 CNS = test system: SF-539 CNS
HCT-15 colon = test system: HCT-15 colon
SNB-19 CNS = test system: SNB-19 CNS
K-562 leukemia = test system: K-562 leukemia
OVCAR-5 ovarian = test system: OVCAR-5 ovarian
NCI-H460 lung = test system: NCI-H460 lung
UACC-62 melanoma = test system: UACC-62 melanoma
TK-10 renal = test system: TK-10 renal
UACC-257 melanoma = test system: UACC-257 melanoma
DU-145 prostate = test system: DU-145 prostate
SNB-75 CNS = test system: SNB-75 CNS
U251 CNS = test system: U251 CNS
LOX IMVI melanoma = test system: LOX IMVI melanoma
HT29 colon = test system: HT29 colon
NCI-H23 lung = test system: NCI-H23 lung
SK-OV-3 ovarian = test system: SK-OV-3 ovarian
SF-295 CNS = test system: SF-295 CNS
SR leukemia = test system: SR leukemia
HS 578T breast = test system: HS 578T breast
CAKI-1 renal = test system: CAKI-1 renal

Measured: TGI

COc1ccc(CC(C)NCC(O)c2ccc(O)c(NC=O)c2)cc1 (stereo not given)
> 100 µM: all assays above

From PubChem BioAssay (NCI)
